Test results published in patent publication US11873317B2, “Galectin-3 inhibiting c-glycosides” (GLYCOMIMETICS, INC., priority 2018, dated 2024).

What follows are compounds tested against T1, galectin-3 (Homo sapiens, UniProt P17931) (assay: Galectin-3 Activity ELISA assay: inhibition of binding of galectin-3 to a Galβ1-3GlcNAc carbohydrate structure). Settings: galectin-3 binding to immobilized Galβ1-3GlcNAc polymer, A450 readout, read-out: IC50 Galectin-3 Antagonist Activity.
T1 construct: purchased IBL IBATGP0414
T1 sequence (P17931 whole entry): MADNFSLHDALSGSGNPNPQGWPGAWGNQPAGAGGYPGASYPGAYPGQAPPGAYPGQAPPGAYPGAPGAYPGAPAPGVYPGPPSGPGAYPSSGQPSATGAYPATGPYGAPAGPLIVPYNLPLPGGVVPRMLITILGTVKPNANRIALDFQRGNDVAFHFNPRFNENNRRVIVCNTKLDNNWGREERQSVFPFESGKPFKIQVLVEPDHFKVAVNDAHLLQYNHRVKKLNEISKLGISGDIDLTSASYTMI
Procedure: Galectin-3 antagonists were evaluated for their ability to inhibit binding of galectin-3 to a Galβ1-3GlcNAc carbohydrate structure. The detailed protocol was as follows. A 1 ug/mL suspension of a Galβ1-3GlcNAcβ1-3Galβ1-4GcNAcβ-PAA-biotin polymer (Glycotech, catalog number 01-096) was prepared. A 100 uL aliquot of the polymer was added to the wells of a 96-well streptavidin-coated plate (R&D Systems, catalog number CP004). A 100 uL aliquot of IX Tris Buffered Saline (TBS, Sigma, catalog number T5912-10×) was added to control wells. The polymer was allowed to bind to the streptavidin-coated wells for 1.5 hours at room temperature. The contents of the wells were discarded and 200 uL of 1×TBS containing 1% bovine serum albumin (BSA) was added to each well as a blocking reagent and the plate was kept at room temperature for 30 minutes. The wells were washed three times with IX TBS containing 0.1% BSA. A serial dilution of test compounds was prepared in a separate V-bottom plate (Corning, catalog number 3897). A 75 uL aliquot of the highest concentration of the compound to be tested was added to the first well in a column of the V-bottom plate then 15 ul were serially transferred into 60 uL IX TBS through the remaining wells in the column to generate a 1 to 5 serial dilution. A 60 uL aliquot of 2 ug/mL galectin-3 (IBL, catalog number IBATGP0414) was added to each well in the V-bottom plate. A 100 uL aliquot of the galectin-3/test compound mixture was transferred from the V-bottom plate into the assay plate containing the Galβ1-3GlcNAc polymer. Four sets of control wells in the assay plate were prepared in duplicate containing 1) both Galβ1-3GlcNAc polymer and galectin-3, 2) neither the polymer nor galectin-3, 3) galectin-3 only, no polymer, or 4) polymer only, no galectin-3. The plate was gently rocked for 1.5 hours at room temperature. The wells were washed four times with TBS/0.1% BSA. A 100 uL aliquot of anti-galectin-3 antibody conjugated to horse radish peroxidase (R&D Systems, from DGAL30 kit) was added to each well and the plate was kept at room temperature for 1 hour. The wells were washed four times with TBS/0.1% BSA. A 100 uL aliquot of TMB substrate solution was added to each well. The TMB substrate solution was prepared by making a 1:1 mixture of TMB Peroxidase Substrate (KPL, catalog number 5120-0048) and Peroxidase Substrate Solution B (KPL, catalog number 5120-0037). The plate was kept at room temperature for 10 to 20 minutes. The color development was stopped by adding 100 uL 10% phosphoric acid (RICCA Chemical Co., catalog number 5850-16). The absorbance at 450 nm (A450) was measured using a FlexStation 3 plate reader (Molecular Devices). Plots of A450 versus test compound concentration and IC50 determinations were made using GraphPad Prism 6.
`COC(=O)[C@@H](OCc1ccccc1)[C@@H]1OC(CO)[C@H](O)C(n2cc(-c3cc(F)c(F)c(F)c3)nn2)C1O` (stereo partly shown) [Compound 13] was tested, and the IC50 was 3.48 µM. In the case of `CNC(=O)[C@@H](OCc1ccc2ccccc2c1)[C@@H]1OC(CO)[C@H](O)C(n2cc(-c3cc(F)c(F)c(F)c3)nn2)C1O` (stereo partly shown) [Compound 16], the IC50 is reported as 0.53 µM. With `CNC(=O)[C@@H](OCc1cccc(-c2ccccc2)c1)[C@@H]1OC(CO)[C@H](O)C(n2cc(-c3cc(F)c(F)c(F)c3)nn2)C1O` (stereo partly shown) [Compound 17] the IC50 was 2.56 µM. `CNC(=O)[C@@H](OCc1cccc(C(=O)OC)c1)[C@@H]1OC(CO)[C@H](O)C(n2cc(-c3cc(F)c(F)c(F)c3)nn2)C1O` (stereo partly shown) [Compound 18] gave an IC50 of 0.67 µM. `CNC(=O)[C@@H](OCc1ccc(Cl)cc1)[C@@H]1OC(CO)[C@H](O)C(n2cc(-c3cc(F)c(F)c(F)c3)nn2)C1O` (stereo partly shown) [Compound 19] gave an IC50 of 0.32 µM. Work on `CNC(=O)[C@@H](OCc1cccc(Cl)c1)[C@@H]1OC(CO)[C@H](O)C(n2cc(-c3cc(F)c(F)c(F)c3)nn2)C1O` (stereo partly shown) [Compound 20] yielded an IC50 of 1.52 µM. `CNC(=O)[C@@H](OCc1cccc(OC(F)(F)F)c1)[C@@H]1OC(CO)[C@H](O)C(n2cc(-c3cc(F)c(F)c(F)c3)nn2)C1O` (stereo partly shown) [Compound 21] gave an IC50 of 1.94 µM. For `CNC(=O)[C@@H](OCc1ccc(F)cc1)[C@@H]1OC(CO)[C@H](O)C(n2cc(-c3cc(F)c(F)c(F)c3)nn2)C1O` (stereo partly shown) [Compound 24], the IC50 was 1.72 µM. With `CNC(=O)[C@@H](OCc1ccc(F)c(F)c1)[C@@H]1OC(CO)[C@H](O)C(n2cc(-c3cc(F)c(F)c(F)c3)nn2)C1O` (stereo partly shown) [Compound 25] the IC50 was 1.08 µM. `CNC(=O)[C@@H](OCc1ccc(C(F)(F)F)cc1)[C@@H]1OC(CO)[C@H](O)C(n2cc(-c3cc(F)c(F)c(F)c3)nn2)C1O` (stereo partly shown) [Compound 26] gave an IC50 of 0.35 µM. `CNC(=O)[C@@H](OCc1ccc(F)c(Cl)c1)[C@@H]1OC(CO)[C@H](O)C(n2cc(-c3cc(F)c(F)c(F)c3)nn2)C1O` (stereo partly shown) [Compound 27] was tested, and the IC50 was 2.09 µM. Work on `CNC(=O)[C@@H](OCc1ccc(S(C)(=O)=O)cc1)[C@@H]1OC(CO)[C@H](O)C(n2cc(-c3cc(F)c(F)c(F)c3)nn2)C1O` (stereo partly shown) [Compound 28] yielded an IC50 of 0.69 µM. `CNC(=O)[C@@H](OCc1ccc(C(=O)OC)cc1)[C@@H]1OC(CO)[C@H](O)C(n2cc(-c3cc(F)c(F)c(F)c3)nn2)C1O` (stereo partly shown) [Compound 29] was tested, and the IC50 was 4.6 µM. Work on `CNC(=O)[C@@H](OCc1ccc(OC(F)(F)F)cc1)[C@@H]1OC(CO)[C@H](O)C(n2cc(-c3cc(F)c(F)c(F)c3)nn2)C1O` (stereo partly shown) [Compound 30] yielded an IC50 of 4.98 µM. `CNC(=O)[C@@H](OCc1ccc(Cl)c(F)c1)[C@@H]1OC(CO)[C@H](O)C(n2cc(-c3cc(F)c(F)c(F)c3)nn2)C1O` (stereo partly shown) [Compound 31] gave an IC50 of 0.18 µM. In the case of `CNC(=O)[C@@H](OCc1ccc(OC)cc1)[C@@H]1OC(CO)[C@H](O)C(n2cc(-c3cc(F)c(F)c(F)c3)nn2)C1O` (stereo partly shown) [Compound 32], the IC50 is reported as 2.81 µM. Compound `CNC(=O)[C@@H](OCc1ccc(C2CC2)cc1)[C@@H]1OC(CO)[C@H](O)C(n2cc(-c3cc(F)c(F)c(F)c3)nn2)C1O` (stereo partly shown) [Compound 33] has an IC50 of 1.64 µM. For `CNC(=O)[C@@H](OCc1cccnc1)[C@@H]1OC(CO)[C@H](O)C(n2cc(-c3cc(F)c(F)c(F)c3)nn2)C1O` (stereo partly shown) [Compound 34], the IC50 was 0.85 µM. With `CCCCNC(=O)[C@@H](OCc1ccccc1)[C@@H]1OC(CO)[C@H](O)C(n2cc(-c3cc(F)c(F)c(F)c3)nn2)C1O` (stereo partly shown) [Compound 35] the IC50 was > 100 µM. With `CNC(=O)[C@@H](OCc1ccccc1)[C@@H]1OC(CO)[C@H](O)C(n2cc(-c3cc(F)c(F)c(F)c3)nn2)C1O` (stereo partly shown) [Compound 36] the IC50 was 3.86 µM. Compound `CNC(=O)[C@@H](OCc1ccccc1)[C@@H]1OC(CO)[C@H](O)[C@H](n2cc(-c3cc(F)c(F)c(F)c3)nn2)C1OC` (stereo partly shown) [Compound 40] has an IC50 of 2.61 µM. With `COC1[C@H]([C@H](OCc2ccccc2)C(=O)N(C)C)OC(CO)[C@H](O)[C@@H]1n1cc(-c2cc(F)c(F)c(F)c2)nn1` (stereo partly shown) [Compound 41] the IC50 was 9.58 µM. `COC1C(n2cc(-c3cc(F)c(F)c(F)c3)nn2)[C@@H](O)C(CO)O[C@H]1[C@H](OCc1ccc(Cl)cc1)C(=O)N(C)C` (stereo partly shown) [Compound 42] gave an IC50 of 2.06 µM. `COC1C(n2cc(-c3cc(F)c(F)c(F)c3)nn2)[C@@H](O)C(CO)O[C@H]1[C@H](OCc1ccc(Cl)cc1)C(=O)Nc1ccccc1F` (stereo partly shown) [Compound 69] gave an IC50 of 0.23 µM. `COC1C(n2cc(-c3cc(F)c(F)c(F)c3)nn2)[C@@H](O)C(CO)O[C@H]1[C@H](OCc1ccc(Cl)cc1)C(=O)NCC(F)(F)F` (stereo partly shown) [Compound 70] gave an IC50 of 0.72 µM.
